Data: ChEMBL document CHEMBL1811878, “Heteroatom-substituted analogues of orphan nuclear receptor small heterodimer partner ligand and apoptosis inducer (E)-4-[3-(1-Adamantyl)-4-hydroxyphenyl]-3-chlorocinnamic acid” (J Med Chem, 2011)
pIC50: −log10 of the molar value. The source made the active and inactive calls. The rule behind the calls is not given here.

How the values were obtained:
KG-1 [1] = test: Growth inhibition in human KG1 cells expressing p53 gene at 1 uM after 48 hrs by MTT assay; type: functional; conditions: KG-1, 48 h, read-out: GI
PC-3 [2] = test: Induction of apoptosis in human PC3 cells assessed as decrease in ATP level after 72 hrs by luminescence assay; type: functional, cell-based
KG-1 [3] = test: Induction of apoptosis in human KG1 cells assessed as DNA fragmentation at 5 uM after 48 hrs by acridine orange staining method; type: functional
HT-29 [4] = test: Induction of apoptosis in human HT-29 cells assessed as decrease in ATP level after 72 hrs by luminescence assay; type: functional, cell-based
KG-1 [5] = test: Growth inhibition in human KG1 cells expressing p53 gene at 5 uM after 48 hrs by MTT assay; type: functional; conditions: KG-1, 48 h, read-out: GI
A549 [6] = test: Induction of apoptosis in human A549 cells assessed as decrease in ATP level after 72 hrs by luminescence assay; type: functional, cell-based
KG-1 [7] = test: Induction of apoptosis in human KG1 cells expressing p53 gene assessed as DNA fragmentation at 1 uM after 48 hrs by acridine orange staining method; type: functional
PC-3 [8] = test: Induction of apoptosis in human PC3 cells assessed as decrease in ATP level at 5 uM after 72 hrs by luminescence assay; type: functional; parameters: scale not given: the % may be the effect or the level left
PC-3 [9] = test: Induction of apoptosis in human PC3 cells assessed as decrease in ATP level at 10 uM after 72 hrs by luminescence assay; type: functional, cell-based
HT-29 [10] = test: Induction of apoptosis in human HT-29 cells assessed as decrease in ATP level at 5 uM after 72 hrs by luminescence assay; type: functional; parameters: scale not given: the % may be the effect or the level left
A549 [11] = test: Induction of apoptosis in human A549 cells assessed as decrease in ATP level at 5 uM after 72 hrs by luminescence assay; type: functional; parameters: scale not given: the % may be the effect or the level left
A549 [12] = test: Induction of apoptosis in human A549 cells assessed as decrease in ATP level at 10 uM after 72 hrs by luminescence assay; type: functional, cell-based
HT-29 [13] = test: Induction of apoptosis in human HT-29 cells assessed as decrease in ATP level at 10 uM after 72 hrs by luminescence assay; type: functional
[14] = Induction of apoptosis in mouse MMTV-Wnt-1 cells assessed as cell viability after 72 hrs by DAPI staining based cell counting; type: functional
[15] = Induction of apoptosis in retinoid-resistant p53 null human HL60R cells assessed as DNA fragmentation at 0.1 uM after 24 hrs by acridine orange staining method; type: functional
[16] = Induction of apoptosis in retinoid-resistant p53 null human HL60R cells assessed as DNA fragmentation at 1 uM after 24 hrs by acridine orange staining method; type: functional

SMILES | inhibition of growth at 1 µM (KG-1 [1]) [%] | Activity (PC-3 [2]) | Activity (KG-1 [3]) [%] | Activity (HT-29 [4]) | inhibition of growth at 5 µM (KG-1 [5]) [%] | Activity (A549 [6]) | Activity (KG-1 [7]) [%] | Activity (PC-3 [8]) [%] | Activity (PC-3 [9]) | Activity (HT-29 [10]) | Activity (A549 [11]) | Activity (A549 [12]) | Activity (HT-29 [13]) | pIC50 [14] | Activity [15] [%] | Activity [16] [%]
CC(=O)Oc1ccc(-c2ccc(/C=C/C(=O)O)cn2)cc1C12CC3CC(CC(C3)C1)C2 | 46 | Dose-dependent effect | 67 | Dose-dependent effect | 54 | Dose-dependent effect | 52 |  |  |  |  |  |  |  |  | 
O=C(O)/C=C/c1ccc(-c2ccc(O)c(C34CC5CC(CC(C5)C3)C4)c2)cn1 | 48 | Dose-dependent effect | 52 | Dose-dependent effect | 58 | Dose-dependent effect | 36 | >60 | Active | 10% | 10% | Active |  |  |  | 
O=C(O)c1cc2ccc(-c3ccc(O)c(C45CC6CC(CC(C6)C4)C5)c3)cc2[nH]1 | 1 | Dose-dependent effect | 3 | Dose-dependent effect | 8 | Dose-dependent effect | 1 |  |  |  |  |  |  |  |  | 
O=C(O)/C=C/c1cnc(-c2ccc(O)c(C34CC5CC(CC(C5)C3)C4)c2)cn1 | 44 | Dose-dependent effect | 50 | Dose-dependent effect | 61 | Dose-dependent effect | 39 |  | Active |  |  |  | inactive | 6.50 |  | 
O=C(O)/C=C/C1CCN(c2ccc(O)c(C34CC5CC(CC(C5)C3)C4)c2)CC1 | 1 | Dose-dependent effect | 1 | Dose-dependent effect | 2 | Dose-dependent effect | 1 |  |  |  |  |  |  |  |  | 
O=C(O)/C=C/c1ccc(-c2ccc(O)c(C34CC5CC(CC(C5)C3)C4)c2)nn1 | 70 | Dose-dependent effect | 59 | Dose-dependent effect | 80 | Dose-dependent effect | 48 | >60 | Active | <=5% | <=5% | inactive |  |  |  | 
O=C(O)CS(=O)(=O)c1ccc(-c2ccc(O)c(C34CC5CC(CC(C5)C3)C4)c2)c(Cl)c1 | 7 | Dose-dependent effect | 6 | Dose-dependent effect | 13 | Dose-dependent effect | 2 |  |  |  |  |  |  |  |  | 
O=C(O)CCN1CCN(c2ccc(O)c(C34CC5CC(CC(C5)C3)C4)c2)CC1 | -3 | Dose-dependent effect | 1 | Dose-dependent effect | 5 | Dose-dependent effect | 1 |  | Active |  |  | inactive |  |  |  | 
O=C(O)c1ccc2c(Cl)c(-c3ccc(O)c(C45CC6CC(CC(C6)C4)C5)c3)ccc2c1 |  |  |  |  |  |  |  |  |  |  |  |  |  |  | 62 | 94
O=C(O)CC(=O)N1CCN(c2ccc(O)c(C34CC5CC(CC(C5)C3)C4)c2)C(=O)C1 | -2 | Dose-dependent effect | 2 | Dose-dependent effect | -5 | Dose-dependent effect | 1 |  |  |  |  |  |  |  |  | 
CCOC(=O)/C=C/c1ccc(-c2ccc(O)c(C34CC5CC(CC(C5)C3)C4)c2)nc1 | 0 | Dose-dependent effect | 0 | Dose-dependent effect | 45 | Dose-dependent effect | 0 |  | Active |  |  | Active |  |  |  | 
O=C(O)CNc1ccc(-c2ccc(O)c(C34CC5CC(CC(C5)C3)C4)c2)c(Cl)c1 | 30 | Dose-dependent effect | 35 | Dose-dependent effect | 45 | Dose-dependent effect | 18 |  |  |  |  | inactive | >=40% |  |  | 
O=C(O)CCc1ccc(-c2ccc(O)c(C34CC5CC(CC(C5)C3)C4)c2)c(Cl)c1 | 0 | Dose-dependent effect | 1 | Dose-dependent effect | 0 | Dose-dependent effect | 0 |  |  |  |  |  |  |  |  | 
O=C(O)COc1ccc(-c2ccc(O)c(C34CC5CC(CC(C5)C3)C4)c2)c(Cl)c1 | 34 | Dose-dependent effect | 25 | Dose-dependent effect | 75 | Dose-dependent effect | 5 |  |  |  |  | inactive |  |  |  | 
O=C(O)/C=C/c1cnc(-c2ccc(O)c(C34CC5CC(CC(C5)C3)C4)c2)c(Cl)c1 | 41 | Dose-dependent effect | 65 | Dose-dependent effect | 47 | Dose-dependent effect | 56 |  | Active |  |  | Active | inactive |  |  | 
O=C(O)CSc1ccc(-c2ccc(O)c(C34CC5CC(CC(C5)C3)C4)c2)c(Cl)c1 | 7 | Dose-dependent effect | 5 | Dose-dependent effect | 11 | Dose-dependent effect | 2 |  |  |  |  |  |  |  |  | 
O=C(O)CNc1cnc(-c2ccc(O)c(C34CC5CC(CC(C5)C3)C4)c2)nc1 | 0 | Dose-dependent effect | 0 | Dose-dependent effect | 0 | Dose-dependent effect | 0 |  |  |  |  |  |  |  |  | 
